PMC7353089, “The Hepatotoxicity of Alantolactone and Germacrone: Their Influence on Cholesterol and Lipid Metabolism in Differentiated HepaRG Cells” (Nutrients, 2020)

Test system: ALB mRNA
Test: RT-qPCR mRNA expression in dHepaRG cells
Format: cell-based, human
Conditions: after 6 h of exposure
Method: Three concentrations were selected for each compound (non-toxic, non-toxic/slightly toxic and toxic). […] The expression changes of genes and proteins related to cholesterol metabolism were measured in both single and multiple exposure experiments.
All treatments were performed in triplicates and every experiment was performed three times. The cells were washed twice with ice cold phosphate-buffered saline (PBS), scrapped and stored at −80 °C until use. Total RNA from cells was isolated using TriReagent according to the manufacturer’s instructions (Biotech, Prague, Czech Republic). The purified RNA was dissolved in 40 µL of diethyl pyrocarbonate (DEPC)-treated water (0.01% DEPC in HPLC water, autoclaved) and stored at −80 °C. The measurement of absorbance at 260 and 280 nm using the NanoDrop ND-1000 UV–VIS Spectrophotometer (Thermo Fisher Scientific, Pardubice, Czech Republic) was used to determine RNA yields and purity. […] Fluorescence data were recorded at the end of each amplification step. Relative expression levels of the target genes were calculated as fold changes in triplicates for each group using the 2^−ΔΔCt method [28] by normalization to the geometric mean of the Ct values of Sdha and Ywhaz, which were used as reference genes.

Compound: CC(C)=C1C/C=C(\C)CC/C=C(\C)CC1=O [GER, germacrone]
- ALB mRNA expression: induced
